Broadly, the IC50 is the point on the concentration scale where inhibition reaches its midpoint. Usually GI50 stands for the concentration at which growth is held to half of that of the control. By TGI is commonly meant the concentration at which net growth stops.

Entries after “also recorded” stand apart in the source; their conditions may differ. Read-outs that look alike come from different tables or passages of the source.

Results on seven compounds are retold here after PMC6254723, “Synthesis and Pharmacological Screening of Several Aroyl and Heteroaroyl Selenylacetic Acid Derivatives as Cytotoxic and Antiproliferative Agents” (Molecules, 2009).

Data set [1] deals with PC-3 cell line. The following applies: cited from earlier work.
For data set [2], the system named is CCRF-CEM. Nature of the data set: MTT cytotoxicity assay (NCI) in CCRF-CEM. The format is cell-based, human. The following applies: 72 h; for TGI CCRF-CEM: dose that completely inhibits cell growth; for LD50 CCRF-CEM: dose that kills 50% of cells; for GI50: Homo sapiens, CCRF-CEM, read-out: GI50 CCRF-CEM. How it is done:
(§1) In order to investigate the effect of the active compounds in more detail, we examined the activity on proliferation in other cancer cell lines. […] Tests were carried out in the Department of Health Science, Public University of Navarra against a panel of four human tumour cell lines: lung (HTB-54), colon (HT-29), leukaemia (CCRF-CEM) and breast adenocarcinoma (MCF-7). Cytotoxicity assays were performed based on the reactivity of MTT [3-(4,5-dimethylthiazol-2-yl)-2,5-diphenyl-tetrazolium bromide], as described by NCI [39]. […] Doxorubicin was used as a control. As guidance with regard to selectivity, all of the compounds were further examined for toxicity in a mammary gland cell culture derived from non-malignant cells (184B5). Drug concentrations ranged from 0.01 to 100 μM.
(§2) The cytotoxic effects of each substance were tested at five different doses between 0.01 and 100 μM. Each substance was initially dissolved in DMSO at a concentration of 0.1 M, and serial dilutions were prepared using culture medium. The plates with cells from the different lines, to which medium containing the substance under test were added, were incubated for 72 h at 37 °C in a humidified atmosphere containing 5% CO2. European Collection of Cell Cultures (ECACC) or American Type Culture Collection (ATCC) provided human tumour cell lines. Four cell lines were used: one human lymphocytic leukemia (CCRF-CEM) and three human solid tumours, one colon carcinoma (HT-29), one lung carcinoma (HTB-54) and one breast adenocarcinoma (MCF-7). CCRF-CEM, HT-29 and HTB-54 cells were grown in RPMI 1640 medium (Life Technologies, Carlsbad, CA, USA) supplemented with 10% foetal calf serum, 2 mM L-glutamine, 100 units/mL penicillin, 100 μg/mL streptomycin and 10 mM HEPES buffer (pH = 7.4). MCF-7 cells were grown in EMEM medium (Clonetics) supplemented with 10% foetal calf serum, 2 mM L-glutamine, 100 units/mL penicillin and 100 μg/mL streptomycin. 184B5 cells were grown Hams F-12/DMEM (50:50) supplemented as described by Li et al.. Cytotoxicity was then determined by the MTT method. […] Data were obtained from at least three independent experiments performed in quadruplicate.

Data set [3] deals with MCF-7. Kind of data set: MTT cytotoxicity assay (NCI) in MCF-7. The format is cell-based, human. The following applies: for TGI MCF-7: dose that completely inhibits cell growth; for LD50 MCF-7: dose that kills 50% of cells; for GI50: Homo sapiens, read-out: GI50 MCF-7. Here is the method: as §1, §2
Data set [4] has as its system HTB-54. Kind of data set: MTT cytotoxicity assay (NCI) in HTB-54. The format is cell-based, human. The following applies: for TGI HTB-54: dose that completely inhibits cell growth; for LD50 HTB-54: dose that kills 50% of cells; for GI50: Homo sapiens, read-out: GI50 HTB-54. How it is done: as §1, §2
Data set [5] concerns PC-3 cell line. Nature of the data set: MTT cytotoxicity assay in PC-3. The following applies: Homo sapiens. Here is the method:
The results are tabulated as IC50 values. All experiments were independently performed at least three times and the values were calculated after 72 hours exposure (drug concentrations of 2, 5, 7 and 10 μM).
PC-3 cells were seeded in 96-well plates (Millipore, Eschborn, Germany) at a density of 5 × 10^3 cells per well. The samples were incubated at 37 °C under 5% CO2 overnight prior to the addition of the compounds. Compounds were diluted in complete medium. After 3 days of incubation, 10 μL MTT solution (5 mg/mL in PBS) was added to the cells in each well and these were stored for an additional 4 h at 37 °C. […] The percentage of viable cells was calculated to obtain IC50-values.
PC-3 are human tumorigenic and metastatic prostate cancer cells and these were obtained from American Type Culture Collection (ATCC, Manassas, VA, USA) (passage 36).

Data set [6] deals with HT-29. Nature of the data set: MTT cytotoxicity assay (NCI) in HT-29. The class given is cell-based, human. The following applies: for TGI HT-29: dose that completely inhibits cell growth; for LD50 HT-29: dose that kills 50% of cells; for GI50: Homo sapiens, read-out: GI50 HT-29. How it is done:
as §1, §2
For orientation: Tetrazolium assays rely on reduction of a dye to a coloured formazan, in cell work by metabolically active cells.

The test system of data set [7] is 184B5. Kind of data set: MTT toxicity assay in non-malignant mammary gland cells 184B5. The class given is cell-based. The following applies: for LD50 184B5 / TGI 184B5: 72 h; for LD50 184B5: dose that kills 50% of cells. Here is the method: as §1, §2
Test in data set [8]: as above
The format is cell-based. The following applies: human. How it is done: as §1, §2

Data set [9] relates to MCF-7 cells. Nature of the data set: Apoptosis, Apo-Direct kit (TUNEL). The format is cell-based, human. The following applies: MCF-7, 25 μM, 48 hours. How it is done:
The apoptotic status of the cells after 48 hours of treatment with 25 μM of the corresponding compound was determined using the Apo-Direct kit (BD Pharmingen) based on the TUNEL technique. Camptothecin was used as a positive control.
(§3) For breast adenocarcinoma MCF-7 cells, the apoptotic status and cell cycle analysis of the cells were determined using the Apo-Direct kit (BD Pharmingen), based on the TUNEL technique, under the conditions described by the manufacturer.

In data set [10] the test system is MCF-7 cells. Kind of data set: Cell cycle progression by flow cytometry. The class given is cell-based, human. The following applies: MCF-7, 25 μM, 48 hours. Here is the method:
Cell cycle arrest is one of the targets of many anticancer drugs, including doxorubicin and camptothecin. In an effort to ascertain whether compound 1 could affect cell cycle progression in MCF-7 cells, these cells were treated with 25 μM of the corresponding compound for 48 hours and cell cycle progression was determined by flow cytometry analysis.
as §3
(In general: Flow cytometry measures light scatter and fluorescence of single cells or particles in a stream.)

The test system of data set [11] is MCF-7. The following applies: comparison drugs, MCF-7 by context; no reference given; cited from earlier work.
Setting [12] is: dose that inhibits 50% of cell growth.
Setting [13] is: MCF7, 72 h, dose that inhibits 50% of cell growth.
Setting [14] is: HTB-54, 72 h, dose that inhibits 50% of cell growth.
[15] abbreviates: PC-3, 72 h, read-out: IC50 PC-3 cell line.
Setting [16] is: PC-3, read-out: IC50 (cytotoxic activity in PC-3 cell line).
Setting [17] is: HT-29, 72 h, dose that inhibits 50% of cell growth.
The mark [18] stands for this setting: listed as benzoylselenylacetic acid.

Consider `C[Se](=O)O` [MSA, methylseleninic acid], for which the half-inhibitory concentration (IC50) in data set [1] (methylseleninic acid control) was 8.38 µM.

Consider `O=C(O)C[Se]C(=O)Cc1ccccc1` [Compound 11, Phenylacetoylselenylacetic acid], for which, in data set [2], the “TGI CCRF-CEM” value is greater than 100 µM. The “LD50 CCRF-CEM” value in data set [2] is greater than 100 µM. The 50% growth inhibitory concentration (GI50) is greater than 100 µM in data set [2] (setting [12]), 0.006 µM in [3] (setting [13]), 11.1 µM in [4] (setting [14]) and 16.2 µM in data set [6] (setting [17]). Further, the “TGI MCF-7” value in data set [3] (72 h) came out at 4.18 µM; in [3] (72 h, listed as benzyl) it was 6.19 µM. Further, the “LD50 MCF-7” value in [3] (72 h) was 53.49 µM. Moreover, the “TGI HTB-54” value in data set [4] (72 h) is greater than 100 µM. Also, in data set [4] (72 h), the “LD50 HTB-54” value was greater than 100 µM. Further, the half-maximal inhibitory concentration (IC50) in [5] (setting [15]) and in data set [5] (setting [16]) was 2.9 µM in each case. In addition, in [6] (72 h), the “TGI HT-29” value came out at 72.19 µM. Besides, in data set [6] (72 h), the “LD50 HT-29” value was greater than 100 µM. Besides, the “LD50 184B5” value in [7] (non-malignant cells) was 72.34 µM. Besides, the “TGI 184B5” value in data set [7] (human) was 9.64 µM. Further, the GI50 at 72 h in [8] is 1.05 µM.

On to `COc1cc([C@@H]2c3cc4c(cc3[C@@H](O[C@@H]3O[C@@H]5CO[C@@H](C)O[C@H]5[C@H](O)[C@H]3O)[C@H]3COC(=O)[C@H]23)OCO4)cc(OC)c1O` [Etoposide], for which the concentration for half-maximal inhibition (IC50) in data set [1] (etoposide control) is 13.6 ± 2.2 µM.

For the compound `O=C(O)C[Se]C(=O)c1ccccc1` [Compound 1, (Benzoylselenyl)acetic acid], the “TGI CCRF-CEM” value in data set [2] was greater than 100 µM. The “LD50 CCRF-CEM” value in data set [2] was greater than 100 µM. For the same compound, the GI50 in data set [2] is greater than 100 µM; in [3] (MCF7, 72 h) it was 0.09 µM; in data set [4] (HTB-54, 72 h) it was 0.58 µM; in [6] (HT-29, 72 h), 7.39 µM. The induction of apoptosis entry in data set [9] was “induction of cell death was independent of the apoptotic process; also recorded: mechanism of action is independent of apoptosis”; in data set [9] (setting [18]), “did not provoke apoptosis”. Further, in data set [3] (72 h), the “TGI MCF-7” value is 3.69 µM. In data set [3] (72 h), the “LD50 MCF-7” value amounted to 58.01 µM. For the same compound, the “TGI HTB-54” value in data set [4] (72 h) is 42.47 µM. In data set [4] (72 h), the “LD50 HTB-54” value was greater than 100 µM. For the same compound, the concentration for half-maximal inhibition (IC50) in data set [5] (setting [15]) and in data set [5] (setting [16]) was 6.8 µM each time. In addition, the “TGI HT-29” value in data set [6] (72 h) is 55.98 µM. Further, in [6] (72 h), the “LD50 HT-29” value is greater than 100 µM. Further, in [7] (non-malignant cells, dose that completely inhibits cell growth), the “TGI 184B5” value was found to be 22.50 µM. Also, in [7] (non-malignant cells), the “LD50 184B5” value stood at 76.73 µM. Also, the “selectivity index (184B5/MCF-7 LD50 ratio)” value in [7] (LD50 in 184B5 divided by LD50 in MCF-7) is reported as 1.3. In addition, in [8] (72 h, non-malignant cells, dose that inhibits 50% of cell growth, read-out: GI50 184B5), the GI50 at 72 h worked out at 1.97 µM. In addition, the “effect on cell cycle progression” value in data set [10] was “did not induce any specific phase arrest of the cell cycle”; in data set [10] (setting [18]), “nor did it perturb the cell cycle”.

Take `O=C(O)C[Se]C(=O)c1cccnc1Cl` [Compound 21, (3-(2-chloro)-pyridoylselenyl)acetic acid]: in data set [2], the “TGI CCRF-CEM” value is greater than 100 µM and the “LD50 CCRF-CEM” value was greater than 100 µM. Further, the GI50 in [2] (setting [12]) was greater than 100 µM. Besides, in data set [3] (72 h), the “TGI MCF-7” value was found to be 8.27 µM and the “LD50 MCF-7” value worked out at 89.21 µM. For the same compound, the 50% growth inhibitory concentration (GI50) in data set [3] (setting [13]) was 0.003 µM. Besides, in [4] (72 h), the “TGI HTB-54” value was greater than 100 µM and the “LD50 HTB-54” value is greater than 100 µM. In [4] (setting [14]), the GI50 turned out to be 11.8 µM. In data set [5] (setting [15]), the IC50 stood at 10 µM. In data set [5] (setting [16]), the half-maximal inhibitory concentration (IC50) came out at 10 µM. In addition, in data set [6] (72 h), the “TGI HT-29” value was 60.94 µM and the “LD50 HT-29” value was greater than 100 µM. Moreover, the concentration for 50% growth inhibition (GI50) in [6] (setting [17]) came to 7.53 µM. Further, the “LD50 184B5” value in data set [7] (non-malignant cells) stood at 7.20 µM. For the same compound, in data set [7] (human), the “TGI 184B5” value amounted to 1.89 µM. In data set [8], this compound gave a GI50 at 72 h of 0.05 µM.

On to `CCC1=C[C@@H]2CN(C1)Cc1c([nH]c3ccccc13)[C@@](C(=O)OC)(c1cc3c(cc1OC)N(C)[C@H]1[C@@](O)(C(=O)OC)[C@H](OC(C)=O)[C@]4(CC)C=CCN5CC[C@]31[C@@H]54)C2` [vinorelbine], for which, in data set [11], the concentration for 50% growth inhibition (GI50) was 5 ± 1.3 µM and the TGI is 100 ± 10.2 µM.

For `CC(=O)O[C@H]1C(=O)[C@@]2(C)[C@H]([C@H](OC(=O)c3ccccc3)[C@]3(O)C[C@H](OC(=O)[C@H](O)[C@@H](NC(=O)c4ccccc4)c4ccccc4)C(C)=C1C3(C)C)[C@]1(OC(C)=O)CO[C@@H]1C[C@@H]2O` [paclitaxel], in [11], the GI50 was 0.01 µM and the concentration for total growth inhibition (TGI) was 20 ± 1.9 µM.
